Experimental data as given in the supplement of paper PMC10307832.

Legend:
Test in all cases: relative viability (nuclei count vs DMSO), 5 days (fraction); higher = more cells survive
NCI-H2023 = tested on: NCI-H2023
Summary of the method: (§1)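 Relative viability divides the nuclei count in treated wells by that in vehicle wells. Lung cancer cell lines were seeded in 1536-well plates, dosed by pin tool the next day, and fixed and stained after 5 days in one step with final 0.05% Triton X-100, 1% formaldehyde and 1 ug/ml Hoechst. Dosing was a single drug or a fixed anchor-drug dose plus five library-drug doses (not always all listed) in √10 steps, and values are medians of duplicate plates imaged at 4×.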

LXF-289 = tested on: LXF-289
Summary of the method: as §1

NCI-H2347 = tested on: NCI-H2347
Summary of the method: as §1

NCI-H1993 = tested on: NCI-H1993
Summary of the method: as §1

NCI-H1915 = tested on: NCI-H1915
Summary of the method: as §1

SW 1573 = tested on: SW 1573
Summary of the method: as §1

NCI-H661 = tested on: NCI-H661
Summary of the method: as §1

EMC-BAC-2 = tested on: EMC-BAC-2
Summary of the method: as §1

NCI-H647 = tested on: NCI-H647
Summary of the method: as §1

NCI-H1563 = tested on: NCI-H1563
Summary of the method: as §1

NCI-H322M = tested on: NCI-H322M
Summary of the method: as §1

NCI-H727 = tested on: NCI-H727
Summary of the method: as §1

PC-14 = tested on: PC-14
Summary of the method: as §1

SK-LU-1 = tested on: SK-LU-1
Summary of the method: as §1

HOP-62 = tested on: HOP-62
Summary of the method: as §1

NCI-H2126 = tested on: NCI-H2126
Summary of the method: as §1

NCI-H2085 = tested on: NCI-H2085
Summary of the method: as §1

H3255 = tested on: H3255
Summary of the method: as §1

EPLC-272H = tested on: EPLC-272H
Summary of the method: as §1

LCLC-97TM1 = tested on: LCLC-97TM1
Summary of the method: as §1

NCI-H2009 = tested on: NCI-H2009
Summary of the method: as §1

O=C(O)c1ccc(-c2c[nH]c3ncc(-c4ccccc4)cc23)cc1C1CCCC1 + Cc1nc(NC(=O)N2CCC[C@H]2C(N)=O)sc1-c1ccnc(C(C)(C)C(F)(F)F)c1 [Alpelisib] (partner 2 µM)
relative viability (NCI-H2023; first compound 0.04 µM): 0.629
relative viability (NCI-H2023; first compound 0.1265 µM): 0.65
relative viability (NCI-H2023; first compound 0.4 µM): 0.583
relative viability (NCI-H2023; first compound 1.265 µM): 0.529
relative viability (LXF-289; first compound 0.04 µM): 0.979
relative viability (LXF-289; first compound 0.1265 µM): 1.05
relative viability (LXF-289; first compound 0.4 µM): 0.756
relative viability (LXF-289; first compound 1.265 µM): 0.286
relative viability (NCI-H2347; first compound 0.04 µM): 1.12
relative viability (NCI-H2347; first compound 0.1265 µM): 1.13
relative viability (NCI-H2347; first compound 0.4 µM): 1.11
relative viability (NCI-H2347; first compound 1.265 µM): 0.81
relative viability (NCI-H1993; first compound 0.04 µM): 0.656
relative viability (NCI-H1993; first compound 0.4 µM): 0.68
relative viability (NCI-H1993; first compound 1.265 µM): 0.594
relative viability (NCI-H1915; first compound 0.04 µM): 1.13
relative viability (NCI-H1915; first compound 0.1265 µM): 1.07
relative viability (NCI-H1915; first compound 0.4 µM): 1.04
relative viability (NCI-H1915; first compound 1.265 µM): 0.737
relative viability (SW 1573; first compound 0.04 µM): 0.687
relative viability (SW 1573; first compound 0.1265 µM): 0.89
relative viability (SW 1573; first compound 0.4 µM): 0.797
relative viability (SW 1573; first compound 1.265 µM): 0.891
relative viability (NCI-H661; first compound 0.04 µM): 0.48
relative viability (NCI-H661; first compound 0.1265 µM): 0.676
relative viability (NCI-H661; first compound 0.4 µM): 0.675
relative viability (NCI-H661; first compound 1.265 µM): 0.703
relative viability (EMC-BAC-2; first compound 0.04 µM): 0.739
relative viability (EMC-BAC-2; first compound 0.1265 µM): 0.782
relative viability (EMC-BAC-2; first compound 0.4 µM): 0.719
relative viability (EMC-BAC-2; first compound 1.265 µM): 0.713
relative viability (NCI-H647; first compound 0.04 µM): 1.14
relative viability (NCI-H647; first compound 0.1265 µM): 1.24
relative viability (NCI-H647; first compound 0.4 µM): 1.02
relative viability (NCI-H647; first compound 1.265 µM): 0.766
relative viability (NCI-H1563; first compound 0.04 µM): 1.01
relative viability (NCI-H1563; first compound 0.1265 µM): 0.961
relative viability (NCI-H1563; first compound 0.4 µM): 0.891
relative viability (NCI-H1563; first compound 1.265 µM): 0.991
relative viability (NCI-H322M; first compound 0.04 µM): 0.979
relative viability (NCI-H322M; first compound 0.1265 µM): 1
relative viability (NCI-H322M; first compound 0.4 µM): 0.834
relative viability (NCI-H322M; first compound 1.265 µM): 0.703
relative viability (NCI-H727; first compound 0.04 µM): 0.545
relative viability (NCI-H727; first compound 0.1265 µM): 0.629
relative viability (NCI-H727; first compound 0.4 µM): 0.7
relative viability (NCI-H727; first compound 1.265 µM): 0.49
relative viability (PC-14; first compound 0.04 µM): 0.933
relative viability (PC-14; first compound 0.1265 µM): 0.897
relative viability (PC-14; first compound 0.4 µM): 0.971
relative viability (PC-14; first compound 1.265 µM): 0.886
relative viability (SK-LU-1; first compound 0.04 µM): 0.901
relative viability (SK-LU-1; first compound 0.1265 µM): 1.06
relative viability (SK-LU-1; first compound 0.4 µM): 0.817
relative viability (SK-LU-1; first compound 1.265 µM): 0.548
relative viability (HOP-62; first compound 0.04 µM): 0.709
relative viability (HOP-62; first compound 0.1265 µM): 1.02
relative viability (HOP-62; first compound 0.4 µM): 0.942
relative viability (HOP-62; first compound 1.265 µM): 0.922
relative viability (NCI-H2126; first compound 0.04 µM): 0.787
relative viability (NCI-H2126; first compound 0.1265 µM): 0.76
relative viability (NCI-H2126; first compound 0.4 µM): 0.696
relative viability (NCI-H2126; first compound 1.265 µM): 0.629
relative viability (NCI-H2085; first compound 0.04 µM): 1.03
relative viability (NCI-H2085; first compound 0.1265 µM): 0.98
relative viability (NCI-H2085; first compound 0.4 µM): 0.944
relative viability (NCI-H2085; first compound 1.265 µM): 0.741
relative viability (H3255; first compound 0.04 µM): 0.931
relative viability (H3255; first compound 0.1265 µM): 0.776
relative viability (H3255; first compound 0.4 µM): 0.715
relative viability (H3255; first compound 1.265 µM): 0.769
relative viability (EPLC-272H; first compound 0.04 µM): 0.79
relative viability (EPLC-272H; first compound 0.1265 µM): 0.974
relative viability (EPLC-272H; first compound 0.4 µM): 0.949
relative viability (EPLC-272H; first compound 1.265 µM): 0.633
relative viability (LCLC-97TM1; first compound 0.04 µM): 0.278
relative viability (LCLC-97TM1; first compound 0.1265 µM): 0.313
relative viability (LCLC-97TM1; first compound 0.4 µM): 0.239
relative viability (LCLC-97TM1; first compound 1.265 µM): 0.264
relative viability (NCI-H2009; first compound 0.04 µM): 1.17
relative viability (NCI-H2009; first compound 0.1265 µM): 1.16
relative viability (NCI-H2009; first compound 0.4 µM): 1.09
relative viability (NCI-H2009; first compound 1.265 µM): 0.955
